One test deals with TNF-α. Briefly: TNF-α production by synovial cells from a RA patient. Conditions: Homo sapiens, Synovial cell, 10 hours. The format is cell-based. As for the experimental part:
(§1) Cytokine production by synovial cells obtained from a rheumatoid arthritis (RA) patient undergoing knee replacement surgery was measured according to the method described by Brennan, F. M. et al (The Lancet. July 29: 244-247, (1989)). The synovial membrane tissue was digested in DMEM (Gibco) containing 10% FBS, 100 U/ml penicillin and 100 μg/ml streptomycin, 4 mg/ml collagenase type I (Worthington), 1.5 μg/ml Dnase type I (Sigma) and 15 U/ml heparin and incubated at 37° C. for 3 hours. After incubation, the digested tissue was filtered through a 70-μm membrane and the cells washed 3 times in complete medium (DMEM with 10% FBS). The synovial cells were cultured at 1×10^6 cells/ml in presence/absence of the test sample for 10 hours. The supernatants were harvested by centrifugation and levels of the cytokines (TNF-α, IL-1β, IL-6, IL-8) measured by ELISA. To assess the cytotoxic effect of the plant extracts, the cellular viability test was performed using MTS reagent. The 50% inhibitory concentration (IC50) values were calculated by a nonlinear regression method using GraphPad software (Prism 3.03).
(§2) Effect on proinflammatory cytokines produced by synovial cells obtained from a RA patient was studied for compound 1 as described by procedure of example 8.

Another test has as its system IL-6. Briefly: IL-6 production by synovial cells from a RA patient. Conditions: Homo sapiens, Synovial cell, 10 hours. The format is cell-based. As for the experimental part: as §1, §2
The subject of a further test is IL-8. Briefly: IL-8 production by synovial cells from a RA patient. The format is cell-based. Conditions: Homo sapiens, Synovial cell, 10 hours. As for the experimental part:
as §1, §2

The subject of the next test is VCAM-1. Put plainly: Cell-ELISA for adhesion molecule expression in HUVECs: VCAM-1. The format is cell-based. The conditions noted are these: Homo sapiens; TNF-α-induced surface expression, HUVEC. As for the experimental part:
(§3) The assay was designed on the basis of reference Transplantation, Vol 63(5), 759-764, 1997 with modifications.
(§4) Human Umbilical Vein Endothelial Cells (HUVECs) were obtained from Cascade Biologics and were maintained in M200 (Cascade Biologics, Portland, Oreg.) supplemented with low serum growth supplement (LSGS) at 37° C. in a 5% CO2 incubator. U937 cells (ATCC, Manassas, Va.) were grown in the RPMI 1640 medium supplemented with 10% FBS (Hyclone, Logan, Utah). Recombinant human TNFα, antibodies to VCAM-1, ICAM-1, E-Selectin were obtained from R&D Systems and LPS was obtained from Sigma (St. Louis, Mo.).
(§5) HUVECs were plated at […] in 96-well fibronectin-coated plates. The cells were stimulated with TNF-α (10 ng/ml) or LPS (1 μg/ml), 30 min after addition of test compound. After stimulation, cells (E-Selectin and ICAM-1) were fixed with paraformaldehyde in phosphate buffer saline (PBS). Non specific binding was blocked by 2% bovine serum albumin (BSA) in phosphate buffer saline (PBS) for 1 h, and the cells were incubated with primary antibody for 2 h. […] After washing, seven times, 3,3′5,5′-tetramethylbenzidine liquid substrate (TMB substrate) was added and the optical density of each well was determined at 450 nm using a microtitre plate reader (Spectramax, Molecular Devices, Calif.). […] Percent inhibition of the test sample compared to the control is evaluated. […]
On the technique in general: ELISA stands for enzyme-linked immunosorbent assay.

The next test has as its system E-Selectin. Briefly: Cell-ELISA for adhesion molecule expression in HUVECs: E-Selectin. It is filed as cell-based. Conditions: Homo sapiens; TNF-α-induced surface expression, HUVEC. On the procedure:
as §3, §4, §5

The subject of test [1] is THP-1 cell adhesion to HUVECs. Briefly: Adhesion of THP-1 mononuclear cells to HUVEC monolayers. The format is cell-based, human. Conditions: for Fluorescence Intensity: TNF-α 1 ng/ml; for Fold of control: unstimulated DMSO control = 1, stimulated = 18. As for the experimental part:
Adhesion studies were performed with the promonocytic cell line THP-1, which has been established as a useful model for monocytes in adhesion studies in Circ. Res., 97, 236-243, 2005, with modifications. THP-1 cells were washed twice with labeling medium (M200 plus LSGS). THP-1 cells (6×10^5 cells per ml) were labeled with 10 μg/ml bis-carboxyethyl-carboxyfluorescein acetoxymethylester (a fluorescent probe, BCECF-AM; Sigma) for 30 min at RT. After quenching with 0.1% BSA, the pellet was resuspended in labeling medium. To evaluate monocyte adhesion, HUVEC monolayers treated with TNF-α (1 ng/ml) in the presence or absence of various concentrations of test sample. The media was removed, washed and labeled-THP-1-cells were added to the wells (6×10^4 cells per well) and incubated for 10 minutes at RT in the dark. After co incubation, the wells were washed, filled with lysis buffer (0.1% Triton-X in 1.5 M Tris buffer) and incubated for 30 min. The fluorescence was measured using a fluorescent reader (PolarStar Optima, BMG Labtech) at an excitation peak of 485 nm and an emission peak of 520 nm. Values are means±SEM, representing fluorescent adhesion data. BAY 11-7082 [(E)-3-(4-methylphenylsulfonyl)-2-propenenitrile] was used as a standard and DMSO as vehicle control.

Consider `C=C1C(=O)OC2C3=C(C)CCCC3(C)CCC12O` (centres unmarked) [Compound 1, 3a-hydroxy-5a,9-dimethyl-3-methylene-3a,4,5,5a,6,7,8,9b-octahydro-3H-naphtho[1,2-b]furan-2-one], for which the IC50 (usually the concentration that inhibits the measured activity by half) in the test on TNF-α was found to be 800 nM; with IL-6, 1400 nM; with IL-8 it was 10900 nM; with VCAM-1, 400 nM; in the test with E-Selectin, 200 nM. For the same compound, the “Fluorescence Intensity” value in test [1] (0.1 μM) is given as 33421; in test [1] (0.3 μM), 34024; in test [1] (1 μM), 10195; in test [1] (3 μM) it was 5728. Besides, the Fold of control stood at 13 in test [1] (0.1 μM), 13 in test [1] (0.3 μM), 4 in test [1] (1 μM) and 2 in test [1] (3 μM). Besides, the “TNF-α stimulated monocytic THP-1 cell adhesion to HUVECs” value in test [1] (at 1 μM) is “inhibited”.

(Values after US8206756B2, “Herbal composition for inflammatory disorders” (Piramal Life Sciences Limited, priority 2005, dated 2012).)
